According to patent publication US5770618A (Nastech Pharmaceutical Company, Inc., priority 1996, dated 1998):
Structures can show the parent of a compound that is named as a salt. One block for each molecule: values may come before it.

Tests used:
[1] = cited from earlier work
physchem [2] = assay: physchem
physchem [3] = assay: physchem; remark: listed apart in the source
Description: The final pH values of the solutions ranged from about 4 to about 6.

solubility at 24 h (physchem [2]; ammonium acetate 0.1 m, pH 5.4, Clemastine Fumarate Solubility): 6.1 mg/mL
solubility at 24 h (physchem [2]; ammonium acetate 0.25 m, pH 5.5, Clemastine Fumarate Solubility): 12.2 mg/mL
solubility at 24 h (physchem [2]; ammonium acetate 0.5 m, pH 5.6, Clemastine Fumarate Solubility): 25.7 mg/mL
solubility at 24 h (physchem [2]; ammonium acetate 1.0 m, pH 5.7, Clemastine Fumarate Solubility): 43.3 mg/mL
solubility at 24 h (physchem [2]; sodium acetate 0.1 m, pH 5.4, Clemastine Fumarate Solubility): 6.6 mg/mL
solubility at 24 h (physchem [2]; sodium acetate 0.25 m, pH 5.5, Clemastine Fumarate Solubility): 14.3 mg/mL
solubility at 24 h (physchem [2]; sodium acetate 0.5 m, pH 5.6, Clemastine Fumarate Solubility): 24 mg/mL
solubility at 24 h (physchem [2]; sodium acetate 1.0 m, pH 5.7, Clemastine Fumarate Solubility): 41.2 mg/mL
solubility at 24 h (physchem [2]; sodium ascorbate 0.1 m, pH 5.2, Clemastine Fumarate Solubility): 5.5 mg/mL
solubility at 24 h (physchem [2]; sodium ascorbate 0.25 m, pH 5.2, Clemastine Fumarate Solubility): 7.5 mg/mL
solubility at 24 h (physchem [2]; sodium ascorbate 0.5 m, pH 5.2, Clemastine Fumarate Solubility): 16.7 mg/mL
solubility at 24 h (physchem [2]; sodium ascorbate 1.0 m, pH 5.3, Clemastine Fumarate Solubility): 30.6 mg/mL
solubility at 24 h (physchem [2]; sodium citrate 0.15 m, pH 5.6, Clemastine Fumarate Solubility): 28.6 mg/mL
solubility at 24 h (physchem [2]; sodium citrate 0.25 m, pH 5.7, Clemastine Fumarate Solubility): 40 mg/mL
solubility at 24 h (physchem [2]; sodium fumarate 0.25 m, pH 6.2, Clemastine Fumarate Solubility): 44.2 mg/mL
solubility at 24 h (physchem [2]; sodium fumarate 0.5 m, pH 6.4, Clemastine Fumarate Solubility): 82.1 mg/mL
solubility at 24 h (physchem [2]; sodium glycinate 0.25 m, pH 9.1, Clemastine Fumarate Solubility): 15.5 mg/mL
solubility at 24 h (physchem [2]; sodium glycinate 0.5 m, pH 9.4, Clemastine Fumarate Solubility): 26.6 mg/mL
solubility at 24 h (physchem [2]; sodium malate 0.1 m, Clemastine Fumarate Solubility): 13.8 mg/mL
solubility at 24 h (physchem [2]; sodium malate 0.25 m, pH 6, Clemastine Fumarate Solubility): 16.9 mg/mL
solubility at 24 h (physchem [2]; sodium malate 0.5 m, pH 5.5, Clemastine Fumarate Solubility): 25.5 mg/mL
solubility at 24 h (physchem [2]; sodium malate 1.0 m, pH 5.7, Clemastine Fumarate Solubility): 29.3 mg/mL
solubility at 24 h (physchem [2]; sodium maleate 0.25 m, pH 6, Clemastine Fumarate Solubility): 41.4 mg/mL
solubility at 24 h (physchem [2]; sodium maleate 0.5 m, pH 6.5, Clemastine Fumarate Solubility): 65 mg/mL
solubility at 24 h (physchem [2]; sodium maleate 1.0 m, pH 6.8, Clemastine Fumarate Solubility): 153 mg/mL
solubility at 24 h (physchem [2]; sodium succinate 0.25 m, pH 6.1, Clemastine Fumarate Solubility): 15.4 mg/mL
solubility at 24 h (physchem [2]; sodium succinate 0.5 m, pH 6.3, Clemastine Fumarate Solubility): 18.2 mg/mL
solubility at 24 h (physchem [2]; sodium tartarate 0.5 m, pH 5.1, Clemastine Fumarate Solubility): 13.3 mg/mL
solubility (physchem [3]; acetate buffer 0.5 m, pH 4.1): 0.6 mg/mL
solubility (physchem [3]; acetate buffer 0.5 m, pH 5): 3.8 mg/mL
solubility (physchem [3]; acetate buffer 0.5 m, pH 5.3): 11.2 mg/mL
solubility (physchem [3]; acetate buffer 0.5 m, pH 5.5): 18.2 mg/mL
solubility (physchem [3]; acetate buffer 0.5 m, pH 5.7): 24 mg/mL
solubility (physchem [3]; citrate buffer 0.5 m, pH 4.1): 2.7 mg/mL
solubility (physchem [3]; citrate buffer 0.5 m, pH 4.9): 3.3 mg/mL
solubility (physchem [3]; citrate buffer 0.5 m, pH 5.3): 31.6 mg/mL
solubility (physchem [3]; citrate buffer 0.5 m, pH 5.6): 46.3 mg/mL
solubility (physchem [3]; citrate buffer 0.5 m, pH 5.8): 47 mg/mL
SMILES: CN1CCC[C@@H]1CCO[C@](C)(c1ccccc1)c1ccc(Cl)cc1 [Clemastine Fumarate, clemastine fumarate]
solubility in alcohol ([1]; Remington, 19th edition, 1995): only slightly soluble
solubility in water, chloroform or ether ([1]; Remington, 19th edition, 1995): very slightly soluble

SMILES: CN1CCC[C@@H]1CCO[C@](C)(c1ccccc1)c1ccc(Cl)cc1 [clemastine]
solubility in pharmaceutically acceptable solvents ([1]; as is well known in the art, clemastine and its salts): sparingly soluble
